According to patent US20240000750A1, “METHOD FOR PREPARING CRYSTALLINE PARTICLES OF 1-(3-CYANO-1-ISOPROPYL-INDOLE-5-YL)PYRAZOLE-4-CARBOXYLIC ACID, AND PHARMACEUTICAL COMPOSITION COMPRISING SAME” (LG CHEM, LTD., priority 2020, published 2024):

Key:
Format in all cases: physicochemical
[1] = Particle size distribution of crystalline particles, wet method, laser diffraction particle size analyzer
Method: The volume average particle distribution and particle size distribution of the crystalline particles prepared in Preparation Examples, Examples and Comparative Examples were measured by a wet method using a laser diffraction particle size analyzer.
It can be said that the particle size distribution is better as the values of DV10/DV50 and DV50/DV90 used as indicators are larger. Here, DV10, DV50, and DV90 mean particle diameters of particles corresponding to 10%, 50%, and 90% of the total number of particles, respectively, when the measured particles are arranged in order from smallest to largest in particle size.

[2] = Bulk density and tapped density of crystalline particles (flowability: Carr index, Hausner ratio)
Method: The tapped density and bulk density were analyzed to analyze flowability and cohesiveness. tapped density means the changed volume when the container is tapped after packing the powder, which means that the voids between particles are reduced. In addition, the porosity can be confirmed by checking the changes in bulk density (apparent density) and tapped density. In general, the flowability and cohesiveness of the granular powder were evaluated using Carr index (CI) (Carr, 1965) and Hausner ratio (HR) (Hausner, 1967).
The bulk density and tapped density of crystalline particles prepared according to Preparation Examples, Examples and Comparative Examples were measured. The bulk density is the volume when about 50 g of granular powder is put into the measuring cylinder, and the tapped density is the volume when there is no further change in volume after lightly tapping the measuring cylinder on the floor at a constant height 100 times. The bulk density refers to the volume occupied by a certain mass of powder, which refers to the sum of the volume of the powder and the volume of voids between particles as the total volume.
The flowability and cohesiveness of the granular powder were calculated by the Carr index of Equation (3) and the Hausner ratio of Equation (4) using the bulk density and tapped density measured above according to the method of Jinapong et al (2008). […]

[3] = Solubility in organic solvents and water

SMILES | Particle size distribution (in words) [1] | Flowability and cohesiveness (in words) [2] | Solubility [3]
CC(C)n1cc(C#N)c2cc(-n3cc(C(=O)O)cn3)ccc21 [Synthesis Example 1-4, 1-(3-cyano-1-isopropyl-indol-5-yl)pyrazole-4-carboxylic acid] | very good | very good | 
CC(C)n1cc(C#N)c2cc(-n3cc(C(=O)O)cn3)ccc21 [compound of Formula 1, 1-(3-cyano-1-isopropyl-indol-5-yl)pyrazole-4-carboxylic acid] |  |  | very low
